Measurements taken from BindingDB's records for doi:10.1021/acsmedchemlett.8b00220 (Merck, 2018).
pIC50: −log10 of the molar value.

Experiments:
[1] = Inhibition of CYP3A4 (unknown origin) co-incubated with substrate
[2] = Inhibition of CYP3A4 (unknown origin) preincubated followed by substrate addition

CS[C@@]1(C(=O)Nc2ccc3[nH]nc(-c4ccc(F)cc4)c3c2)CCN(CC(=O)N2CC=C(c3ccc(-c4ncccn4)cc3)CC2)C1 [US8546404, 613]
pIC50 [1]: < 4.52
pIC50 [2]: 5.70
